In ChEMBL document CHEMBL1157539, “Thousands of chemical starting points for antimalarial lead identification” (Nature, 2010):

Tested on: Plasmodium falciparum
Assay: GSK_TCMDC: Inhibition of Plasmodium falciparum 3D7 in whole erythrocytes, using parasite LDH activity as an index of growth.
Assay type: functional, organism-based
Conditions: Plasmodium falciparum, 3D7

N=C(Nc1nc(-c2ccccn2)cc2ccccc12)c1cccc(Cl)c1
XC50: 309 nM

CCCc1cc2c3c(N)nc(N)nc3ccc2n1CC
XC50: 47.7 nM

COc1ccc2c(C)cc(NCCCN(C)C)nc2c1
XC50: 1100 nM

O=C(N[C@H]1CCN(CCc2ccc(O[C@H]3CCNC3)c(F)c2)C1)c1ccc(Cl)c(Cl)c1
XC50: 1190 nM

CCc1ccccc1-c1csc(C(=O)NCC2CCN(Cc3ccc(C(C)(C)C)cc3)C2)c1 (stereo unspecified)
XC50: 1150 nM

COc1ccccc1C(=O)C1CCCN(C(=O)c2ccccc2C(F)(F)F)C1 (stereo unspecified)
XC50: 602 nM

CN1CCN(CCCNCc2cccc(-c3ccc(CNCCc4ccccc4)cc3)c2)CC1
XC50: 781 nM

COc1ccc(C2C(C(=O)Nc3ccc(C)c(F)c3)c3cc(OC)c(OC)cc3C(=O)N2C)cc1 (stereo unspecified)
XC50: 956 nM

CC(C)NC[C@@H](O)[C@H](Cc1ccccc1)NC(=O)c1cc2c3c(c1)c(C(C)C)cn3CCS(=O)(=O)N2C
XC50: 179 nM

CCNC(=O)Nc1ccc(N(C)c2ccnc(NC3CC3)n2)cc1
XC50: 803 nM

C=C1N(C)c2cc([N+](=O)[O-])c(N)cc2C1(C)C
XC50: 486 nM

COc1ccc2nccc([C@@H](O)CN3CCC(NCCOc4cc(C(F)(F)F)ccc4F)CC3)c2c1
XC50: 108 nM

Nc1nc(N)c2cc(Cc3ccc([N+](=O)[O-])cc3)cnc2n1
XC50: 943 nM

O=C(/C=C/c1ccc(Cl)c(Cl)c1)N1CCC(C(O)CN2CCC(c3c[nH]c4ccccc34)CC2)CC1 (stereo unspecified)
XC50: 859 nM

COc1c(C2CCN(CCN3CCC(CNC(=O)c4ccc(-c5ccc(C#N)cc5)cc4)CC3)CC2)ccc2c1CCCC2
XC50: 455 nM

CCCCCCOc1ccccc1C(=O)NCCOc1ccc(Cl)cc1
XC50: 1210 nM

COc1ccc(CNC(=O)Nc2cc3cc(-c4ccc(CN5CCCC5)cc4)ccc3n3c(C)nnc23)cc1
XC50: 654 nM

CC1(C)NC(N)=NC(=N)N1OCCCc1ccc(Cl)cc1Cl
XC50: 3.2 nM

O=S(=O)(NCCN1CCCC1)c1ccc(-c2ccc(CNCc3ccc(F)cc3)cc2)s1
XC50: 838 nM

Cc1cc(N[C@@H](Cc2ccccc2)C(=O)NCCc2ccccc2)nc(NCCOc2ccccc2)n1
XC50: 1000 nM

CCC(C)(C)c1ccc(S(=O)(=O)Nc2ccc(Cl)c(OCCN3CCCCC3)c2)cc1
XC50: 1110 nM

NCc1ccc(Nc2nccc(Nc3ccc(-c4ccccc4)cc3)n2)cc1
XC50: 892 nM

CN(C)C(CNC(=O)c1cc(-c2ccncc2)c(-c2cc3ccccc3[nH]2)o1)c1ccccc1 (stereo unspecified)
XC50: 841 nM

O=C(Oc1ccc(Cl)cc1C(=O)Nc1ccc([N+](=O)[O-])cc1Cl)c1ccccc1
XC50: 912 nM

Cc1cccc2nc(-c3ccc(-c4cccc(CNCc5cnn(-c6ccccc6)n5)c4)s3)[nH]c12
XC50: 551 nM

CC(C)c1sc(N2CCN(C)CC2)nc1C(=O)NCCc1cccc(Cl)c1
XC50: 1490 nM

O=C1CCCN1CCCNCc1ccc(-c2ccc(-c3nc4cc(C(F)(F)F)ccc4[nH]3)cc2)cc1
XC50: 583 nM

Cc1nc(N)nc(N)c1OCc1cccc2ccccc12
XC50: 72.7 nM

Cn1c2c(c3ccccc31)CN(CCC1(c3ccc(Cl)c(Cl)c3)CN(C(=O)Cc3ccccc3)CCO1)CC2 (stereo unspecified)
XC50: 358 nM

Cc1[nH]c(C)c(-c2ccc(-c3ccc4c(c3)OCO4)nc2)c(=O)c1Br
XC50: 187 nM

CC(C)C(=O)n1ncc2c3c(N)nc(N)nc3ccc21
XC50: 1030 nM

COc1ccc(-c2nc(NC(=O)Cc3ccc4c(c3)OCCO4)sc2C)cc1
XC50: 245 nM

COc1ccc2ncc(F)c(CCN3CC[C@@H](CNCc4nc5c(cc4C)SCC(=O)N5)C3)c2n1
XC50: 1150 nM

Nc1cc(-c2cccc(Cl)c2)nn1-c1ccnc2cc(Cl)ccc12
XC50: 753 nM

CC[C@H](C)CNC(=O)c1cccc(-c2ccc(CN3CCC(N4CCCC4)CC3)cc2)n1
XC50: 788 nM

CCNC(=O)N1CCN(c2nc(-c3ccccc3)nc(COC)c2Cc2ccc(C)cc2)CC1
XC50: 989 nM

CC[C@H](C)CNC(=O)c1cccc(-c2cccc(CN3CCC(N4CCCC4)CC3)c2)n1
XC50: 706 nM

Cn1nc(-c2cccc(CNC3CCc4ccccc43)c2)c2cnc(NC3CCCC3)nc21 (stereo unspecified)
XC50: 857 nM

NC1=NC(c2ccccc2)(c2ccccc2)C(=O)N1CCOc1ccccc1
XC50: 844 nM

CC(Cc1ccc(OCCCCOc2ccccc2)cc1)NCCC1CCCN1C (stereo unspecified)
XC50: 39.7 nM

CC(C)NC(=O)c1cccc(-c2cccc(OCCN3CCSCC3c3ccccc3)c2)c1 (stereo unspecified)
XC50: 1010 nM

CCNc1cc(C(=O)N[C@@H](Cc2ccccc2)[C@H](O)CNC23CC4CC(CC(C4)C2)C3)cc(N2CCCCS2(=O)=O)c1
XC50: 219 nM

Cn1c(Cc2ccccc2)nnc1Sc1ccc(C#N)c([N+](=O)[O-])c1
XC50: 907 nM

COc1ccc(Nc2cc(C)nc(Nc3ccc(NC(C)=O)cc3)n2)cc1
XC50: 865 nM

COc1ccc(N2C(=O)C3C(C2=O)C2(C)c4ccccc4C3(C)c3ccccc32)c([N+](=O)[O-])c1 (stereo unspecified)
XC50: 720 nM

CCCC(CNCc1cccc(C)c1)CNc1cc(=O)c2ccccc2[nH]1 (stereo unspecified)
XC50: 631 nM

O=C(Nc1ccc(C(F)(F)F)cc1)NC1CCN(c2ccnc3cc(Cl)ccc23)CC1
XC50: 178 nM

CN1C(=CC(=O)NC(=O)c2ccccc2)C(C)(C)c2ccccc21
XC50: 637 nM

Nc1cc(-c2ccc3c(N)nccc3c2)ccc1Cl
XC50: 1540 nM

CC(C)NC(=O)Cn1cc(C2CCN(CC3CCN(C(=O)/C=C/c4ccc(Cl)c(Cl)c4)CC3)CC2)c2ccccc21
XC50: 1030 nM

COc1ccc(NC(=O)[C@H](Cc2ccccc2)Nc2cc(C)nc(NCc3ccccc3C)n2)cc1
XC50: 794 nM

O=C(Nc1cccc(Cl)c1Cl)N[C@H]1CCN(CCCCCNC(=O)C2CC2c2ccc(Cl)c(Cl)c2)C1 (stereo partly specified)
XC50: 1280 nM

CCN(CC)/C(=N/C(=N)Nc1ccc(Br)cc1)NCCCCCCN/C(=N\C(=N)Nc1ccc(Br)cc1)N(CC)CC
XC50: 384 nM

CC(CN1CCN(C)CC1)C(=O)Nc1ccc(-c2ccc(-c3nc4ccccc4[nH]3)s2)cc1 (stereo unspecified)
XC50: 638 nM

Fc1ccc2[nH]c(-c3cccc(-c4ccc(CN5CCN(c6ccncc6)CC5)cc4)c3)nc2c1
XC50: 211 nM

O=C(NCC1CC1)C1CCN(C(c2ccc(Cl)cc2)c2ccc(Cl)cc2)CC1
XC50: 190 nM

COc1ccccc1CCNc1nc(C)cc(N[C@@H](Cc2ccccc2)C(=O)Nc2ccccc2)n1
XC50: 1020 nM

Cn1cncc1C(=O)Nc1ccc(-c2cccc(-c3nc4cc(F)ccc4[nH]3)c2)cc1
XC50: 818 nM

Nc1ncnc2nc(-c3ccc(F)cc3)cc(-c3ccc(NC(=O)c4ccccc4)cc3)c12
XC50: 640 nM

CCN(CCCN1CCCCC1)c1cc(C)nc(Nc2cccc(OC(F)(F)F)c2)n1
XC50: 229 nM

CCOC(=O)C(=CNc1ccc(Cc2cnc(N)nc2N)cc1CC)C(=O)OCC
XC50: 1140 nM

CCc1c[nH]c2c(N3CCCC3=O)cc(C(=O)N[C@@H](Cc3ccccc3)[C@H](O)CNC(C)(C)CCCC(C)C)cc12
XC50: 511 nM

O=C(Nc1cc(Cl)ccc1-n1cncn1)C1(c2ccccc2)CC1
XC50: 455 nM

Cc1ccc(NC(=O)N2CCCN(CCCCCNC(=O)/C=C/c3ccc(Cl)c(Cl)c3)CC2)cc1C
XC50: 773 nM

CCn1c(-c2nonc2N)nc2c(-c3cccc(NC(=O)Nc4ccc5c(c4)CCC5)c3)ncc(OCCCN)c21
XC50: 783 nM

CC(c1cccc(Nc2nccc(-c3c(-c4cccc(NC(=O)c5c(F)cccc5F)c4)nn4ncccc34)n2)c1)S(C)(=O)=O (stereo unspecified)
XC50: 45.6 nM

COc1ccccc1CNC(=O)CCn1c(=O)[nH]c2ccsc2c1=O
XC50: 1040 nM

CCc1cc2c(cc1CC)CC(NC[C@@H](O)c1ccc(O)c3[nH]c(=O)ccc13)C2
XC50: 1120 nM

CC(C)(C)C1CCC(CC2=C(C(=O)O)c3ccccc3C2=O)CC1 (stereo unspecified)
XC50: 1100 nM

O=C(Nc1ccc(Cl)c(Cl)c1)Nc1ccccc1N1CCNCC1
XC50: 709 nM

COc1ccc(CCNC(C)Cc2ccc(C(=O)Nc3ccc(CC(C)NCCc4cccc(Cl)c4)cc3)cc2)cc1 (stereo unspecified)
XC50: 248 nM
